# Test results published in ChEMBL document CHEMBL1201862, “PubChem BioAssay data set” (2004).
# Active and inactive are the calls of the source.
# Legend:
# [1] = target: T1, RNA-binding protein pos-1 (Caenorhabditis elegans, UniProt G5EF15); assay: disruptors of C. elegans POS-1 RNA interaction – biochemical, fluorescence polarization, dose response (AID 1964);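 further: purified POS-1 fused to maltose binding protein made in E. coli; potency of compounds blocking POS-1 binding to fluorescent RNA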
# T1 sequence (G5EF15 whole entry): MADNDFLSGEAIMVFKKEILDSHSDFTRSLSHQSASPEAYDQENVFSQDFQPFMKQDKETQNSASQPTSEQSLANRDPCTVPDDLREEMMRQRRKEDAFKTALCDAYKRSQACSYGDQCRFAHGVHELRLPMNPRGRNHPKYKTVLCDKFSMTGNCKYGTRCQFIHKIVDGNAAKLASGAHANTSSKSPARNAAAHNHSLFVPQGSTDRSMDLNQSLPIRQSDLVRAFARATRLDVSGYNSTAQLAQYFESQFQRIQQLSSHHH
# Procathepsin L = Procathepsin L (Homo sapiens, UniProt P07711)
# Chain of Procathepsin L (P07711 whole entry): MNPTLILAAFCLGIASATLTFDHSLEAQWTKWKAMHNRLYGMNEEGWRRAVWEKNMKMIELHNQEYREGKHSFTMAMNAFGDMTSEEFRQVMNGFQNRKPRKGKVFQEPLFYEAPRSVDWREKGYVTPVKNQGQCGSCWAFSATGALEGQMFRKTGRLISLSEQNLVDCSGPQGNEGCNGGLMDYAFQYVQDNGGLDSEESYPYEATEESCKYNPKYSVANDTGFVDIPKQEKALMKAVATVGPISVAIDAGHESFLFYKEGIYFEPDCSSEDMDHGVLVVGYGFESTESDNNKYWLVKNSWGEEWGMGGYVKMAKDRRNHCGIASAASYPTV
# [2] = target: T2, Zinc finger protein mex-5 (Caenorhabditis elegans, UniProt Q9XUB2); assay: potency of MEX-5 RNA-binding blockers – biochemical, C. elegans, fluorescence polarization, dose response (AID 1960)
# T2 sequence (Q9XUB2 whole entry): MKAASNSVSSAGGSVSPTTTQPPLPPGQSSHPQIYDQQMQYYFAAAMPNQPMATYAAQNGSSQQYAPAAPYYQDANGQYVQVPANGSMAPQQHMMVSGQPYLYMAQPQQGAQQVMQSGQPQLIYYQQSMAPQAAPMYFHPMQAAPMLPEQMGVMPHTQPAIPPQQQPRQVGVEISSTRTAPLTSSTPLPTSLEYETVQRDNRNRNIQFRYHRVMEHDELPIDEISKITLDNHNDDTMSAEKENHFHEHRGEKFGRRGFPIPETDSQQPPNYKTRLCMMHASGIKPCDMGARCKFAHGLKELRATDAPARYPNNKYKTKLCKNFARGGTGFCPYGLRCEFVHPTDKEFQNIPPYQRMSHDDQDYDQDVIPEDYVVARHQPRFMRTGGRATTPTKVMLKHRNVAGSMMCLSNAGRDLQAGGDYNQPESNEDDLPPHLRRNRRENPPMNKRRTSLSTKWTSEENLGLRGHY
# Large T antigen = Large T antigen (Simian virus 40, UniProt P03070); type: functional, Betapolyomavirus macacae;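 further: Confirmatory-stage PubChem screen for compounds that inhibit SV40 T antigen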
# Aspartyl aminopeptidase = Aspartyl aminopeptidase (Plasmodium falciparum 3D7, UniProt Q8I2J3)
# [3] = target: Nucleotide-binding oligomerization domain-containing protein 2 (Homo sapiens, UniProt Q9HC29); assay: PubChem AID 2334; type: functional
# Chain of Nucleotide-binding oligomerization domain-containing protein 2 (Q9HC29 whole entry, the tested form may be a part): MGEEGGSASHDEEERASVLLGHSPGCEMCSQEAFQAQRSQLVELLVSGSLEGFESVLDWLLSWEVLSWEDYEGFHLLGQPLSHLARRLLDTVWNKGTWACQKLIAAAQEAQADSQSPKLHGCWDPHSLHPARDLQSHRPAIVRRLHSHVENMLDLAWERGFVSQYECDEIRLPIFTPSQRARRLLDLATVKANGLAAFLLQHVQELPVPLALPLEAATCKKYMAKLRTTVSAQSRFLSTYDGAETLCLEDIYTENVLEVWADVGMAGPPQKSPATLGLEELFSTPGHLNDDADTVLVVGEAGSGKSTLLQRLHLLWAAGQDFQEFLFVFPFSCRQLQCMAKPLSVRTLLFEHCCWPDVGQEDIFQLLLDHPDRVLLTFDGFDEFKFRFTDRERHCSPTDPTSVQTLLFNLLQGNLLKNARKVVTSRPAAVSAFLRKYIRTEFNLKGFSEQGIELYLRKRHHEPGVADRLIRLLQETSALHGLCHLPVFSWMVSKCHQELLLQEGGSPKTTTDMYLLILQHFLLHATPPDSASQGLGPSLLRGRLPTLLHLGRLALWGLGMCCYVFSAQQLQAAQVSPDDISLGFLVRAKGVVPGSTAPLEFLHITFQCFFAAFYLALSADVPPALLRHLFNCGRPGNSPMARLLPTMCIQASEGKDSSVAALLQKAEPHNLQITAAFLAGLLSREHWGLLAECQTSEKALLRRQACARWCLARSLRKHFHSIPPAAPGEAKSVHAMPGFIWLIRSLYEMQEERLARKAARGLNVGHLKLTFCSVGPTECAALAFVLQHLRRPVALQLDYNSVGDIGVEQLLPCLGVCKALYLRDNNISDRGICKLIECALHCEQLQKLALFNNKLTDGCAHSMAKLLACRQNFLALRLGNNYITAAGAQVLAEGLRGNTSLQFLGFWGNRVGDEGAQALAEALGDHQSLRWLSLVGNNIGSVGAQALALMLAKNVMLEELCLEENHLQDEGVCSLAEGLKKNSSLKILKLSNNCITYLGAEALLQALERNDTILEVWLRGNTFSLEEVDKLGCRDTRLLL
# [4] = target: Nucleotide-binding oligomerization domain-containing protein 1 (Homo sapiens, UniProt Q9Y239); assay: blockers of NOD1 pathway activity – revised, SAR follow-up (AID 2333); type: functional
# Chain of Nucleotide-binding oligomerization domain-containing protein 1 (Q9Y239 whole entry, the tested form may be a part): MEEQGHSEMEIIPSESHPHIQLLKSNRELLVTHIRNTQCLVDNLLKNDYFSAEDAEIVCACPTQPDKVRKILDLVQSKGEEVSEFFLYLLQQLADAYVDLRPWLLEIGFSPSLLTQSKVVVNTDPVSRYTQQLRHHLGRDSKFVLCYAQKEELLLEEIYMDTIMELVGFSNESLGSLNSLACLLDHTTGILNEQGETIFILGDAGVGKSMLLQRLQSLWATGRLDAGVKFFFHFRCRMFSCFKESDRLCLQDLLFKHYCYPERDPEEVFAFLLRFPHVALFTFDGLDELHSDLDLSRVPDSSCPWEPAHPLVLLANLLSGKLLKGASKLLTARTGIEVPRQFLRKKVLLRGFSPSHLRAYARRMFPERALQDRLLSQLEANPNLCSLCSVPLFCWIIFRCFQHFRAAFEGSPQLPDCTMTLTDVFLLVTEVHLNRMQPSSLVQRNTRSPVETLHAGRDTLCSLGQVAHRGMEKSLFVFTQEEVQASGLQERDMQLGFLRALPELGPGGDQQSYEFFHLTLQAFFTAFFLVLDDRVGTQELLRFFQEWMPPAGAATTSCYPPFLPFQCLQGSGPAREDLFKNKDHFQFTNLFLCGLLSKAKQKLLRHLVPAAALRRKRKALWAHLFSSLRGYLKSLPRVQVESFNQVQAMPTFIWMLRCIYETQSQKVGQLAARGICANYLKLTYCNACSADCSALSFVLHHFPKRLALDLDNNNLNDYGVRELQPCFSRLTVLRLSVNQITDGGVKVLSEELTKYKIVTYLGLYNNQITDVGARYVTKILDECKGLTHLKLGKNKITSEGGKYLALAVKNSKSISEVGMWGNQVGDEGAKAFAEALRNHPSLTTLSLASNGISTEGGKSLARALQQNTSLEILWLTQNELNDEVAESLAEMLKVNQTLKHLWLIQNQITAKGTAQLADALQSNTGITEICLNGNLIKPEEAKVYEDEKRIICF
# HEK293 = assay: cells; settings: Homo sapiens;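 further: cells exposed to compound for 14 hours overnight before viability readout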
# Tumor necrosis factor = Tumor necrosis factor (Homo sapiens, UniProt P01375); assay: analog potency on TNFa NF-kB signaling – cell-based, revised, SAR follow-up (AID 2337); type: functional
# Chain of Tumor necrosis factor (P01375 whole entry): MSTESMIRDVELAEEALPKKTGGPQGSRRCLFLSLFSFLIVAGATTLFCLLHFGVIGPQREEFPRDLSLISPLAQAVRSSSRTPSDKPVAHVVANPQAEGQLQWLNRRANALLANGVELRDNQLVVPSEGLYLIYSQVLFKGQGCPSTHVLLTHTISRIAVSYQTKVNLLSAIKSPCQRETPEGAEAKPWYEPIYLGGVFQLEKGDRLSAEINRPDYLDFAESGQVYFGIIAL
# Cytochrome P450 2D6 = Cytochrome P450 2D6 (Homo sapiens, UniProt P10635); assay: qHTS Assay for Inhibitors and Substrates of Cytochrome P450 2D6. [Related pubchem assays: 410 ]; type: ADME; settings: read-out: Potency
# Chain of Cytochrome P450 2D6 (P10635 whole entry): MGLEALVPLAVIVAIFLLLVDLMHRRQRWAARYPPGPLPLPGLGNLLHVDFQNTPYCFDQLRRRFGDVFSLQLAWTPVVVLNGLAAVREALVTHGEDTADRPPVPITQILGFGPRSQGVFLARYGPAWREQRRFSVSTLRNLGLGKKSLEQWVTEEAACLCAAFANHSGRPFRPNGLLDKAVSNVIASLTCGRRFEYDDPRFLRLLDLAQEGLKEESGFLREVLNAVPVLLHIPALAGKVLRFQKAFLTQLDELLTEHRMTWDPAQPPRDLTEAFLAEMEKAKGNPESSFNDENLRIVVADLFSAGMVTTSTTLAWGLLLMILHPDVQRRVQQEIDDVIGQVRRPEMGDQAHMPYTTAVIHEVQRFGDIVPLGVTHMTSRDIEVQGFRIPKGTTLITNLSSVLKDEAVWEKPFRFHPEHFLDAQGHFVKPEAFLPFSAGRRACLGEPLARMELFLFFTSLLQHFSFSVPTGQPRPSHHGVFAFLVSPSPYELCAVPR
# [5] = Counterscreen for IDE inhibitors: Luminescence-based cell-based high throughput dose response assay to identify compounds that are cytotoxic to HEK cells. [Related pubchem assays: 434962 (Primary screen (IDE inhibitors in singlicate)), 449730 (Counterscreen (Cytotoxicity in triplicate)), 435028 (Confirmation (IDE inhibitors in triplicate)) …; type: functional; settings: HEK293
# [6] = target: DNA dC->dU-editing enzyme APOBEC-3A (Homo sapiens, UniProt P31941); assay: Dose Response confirmation of small molecule APOBEC3A DNA Deaminase Inhibitors via a fluorescence-based single-stranded DNA deaminase assay. [Related pubchem assays (depositor defined):AID493011, AID493024]; type: functional
# Chain of DNA dC->dU-editing enzyme APOBEC-3A (P31941 whole entry): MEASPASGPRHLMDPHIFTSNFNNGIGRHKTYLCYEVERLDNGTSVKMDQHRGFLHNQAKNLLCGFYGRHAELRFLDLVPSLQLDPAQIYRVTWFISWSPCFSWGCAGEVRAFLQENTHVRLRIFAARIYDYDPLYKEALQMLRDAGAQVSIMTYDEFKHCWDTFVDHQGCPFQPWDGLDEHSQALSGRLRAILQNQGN
# Insulin-degrading enzyme = target: T3, Insulin-degrading enzyme (Homo sapiens, UniProt P14735); assay: Dose Response: Fluorescence polarization-based cell-based high throughput dose response assay for inhibitors of insulin-degrading enzyme (IDE). [Related pubchem assays: 434962 (Primary screen (IDE inhibitors in singlicate)), 449730 (Counterscreen (Cytotoxicity in triplicate)), 435028 (Confirmation (IDE inhibitors in triplicate)), 434984 (Summary …; type: functional
# T3 sequence (P14735 whole entry): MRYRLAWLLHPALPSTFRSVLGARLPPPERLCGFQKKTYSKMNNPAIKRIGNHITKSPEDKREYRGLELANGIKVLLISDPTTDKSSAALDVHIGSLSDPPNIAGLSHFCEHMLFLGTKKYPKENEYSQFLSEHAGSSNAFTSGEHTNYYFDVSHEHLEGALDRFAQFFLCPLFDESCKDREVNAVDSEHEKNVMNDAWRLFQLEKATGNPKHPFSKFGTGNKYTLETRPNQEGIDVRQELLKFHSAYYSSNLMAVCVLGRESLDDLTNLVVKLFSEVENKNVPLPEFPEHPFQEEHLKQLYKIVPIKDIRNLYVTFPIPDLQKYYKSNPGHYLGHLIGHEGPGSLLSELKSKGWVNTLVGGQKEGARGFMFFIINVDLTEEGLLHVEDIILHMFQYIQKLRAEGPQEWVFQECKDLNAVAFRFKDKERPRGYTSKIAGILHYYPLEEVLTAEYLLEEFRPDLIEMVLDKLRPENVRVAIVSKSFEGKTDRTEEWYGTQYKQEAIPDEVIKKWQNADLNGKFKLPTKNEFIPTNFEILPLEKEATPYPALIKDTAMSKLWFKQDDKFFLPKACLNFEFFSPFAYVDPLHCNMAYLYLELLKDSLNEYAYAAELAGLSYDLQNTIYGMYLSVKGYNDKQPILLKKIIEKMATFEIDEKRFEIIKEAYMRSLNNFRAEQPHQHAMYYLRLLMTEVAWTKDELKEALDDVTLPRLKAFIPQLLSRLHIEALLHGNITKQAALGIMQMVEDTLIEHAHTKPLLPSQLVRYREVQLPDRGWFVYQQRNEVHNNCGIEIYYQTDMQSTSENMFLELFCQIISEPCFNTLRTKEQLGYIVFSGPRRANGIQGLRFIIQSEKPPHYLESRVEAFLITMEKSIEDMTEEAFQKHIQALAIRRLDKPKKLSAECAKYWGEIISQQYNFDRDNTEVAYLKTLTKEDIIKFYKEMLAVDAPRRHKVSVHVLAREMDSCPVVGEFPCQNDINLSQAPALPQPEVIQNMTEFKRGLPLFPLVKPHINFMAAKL
# [7] = target: DNA dC->dU-editing enzyme APOBEC-3G (Homo sapiens, UniProt Q9HC16); type: functional;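 further: Dose-response counterscreen measuring inhibition of APOBEC3G DNA deaminase activity, run while confirming APOBEC3A inhibitors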
# Chain of DNA dC->dU-editing enzyme APOBEC-3G (Q9HC16 whole entry, the tested form may be a part): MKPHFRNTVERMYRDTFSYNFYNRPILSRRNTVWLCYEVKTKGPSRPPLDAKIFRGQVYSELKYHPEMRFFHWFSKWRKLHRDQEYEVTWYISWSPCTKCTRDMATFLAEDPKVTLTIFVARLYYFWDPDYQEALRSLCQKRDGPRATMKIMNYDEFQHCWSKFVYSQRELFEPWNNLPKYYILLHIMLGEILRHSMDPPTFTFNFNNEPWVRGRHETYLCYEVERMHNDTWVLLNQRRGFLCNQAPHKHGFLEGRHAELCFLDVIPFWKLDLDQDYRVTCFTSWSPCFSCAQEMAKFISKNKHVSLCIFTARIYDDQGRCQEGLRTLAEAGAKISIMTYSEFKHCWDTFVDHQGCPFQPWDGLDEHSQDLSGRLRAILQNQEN
# [8] = target: T4, Polyadenylate-binding protein 1 (Homo sapiens, UniProt P11940); assay: MLLE domain peptide-binding blockers, IC50 – biochemical, fluorescence polarization, FITC-PAM2 peptide, dose response (AID 602259); type: functional; settings: read-out: IC50_Mean
# T4 sequence (P11940 whole entry, the tested form may be a part): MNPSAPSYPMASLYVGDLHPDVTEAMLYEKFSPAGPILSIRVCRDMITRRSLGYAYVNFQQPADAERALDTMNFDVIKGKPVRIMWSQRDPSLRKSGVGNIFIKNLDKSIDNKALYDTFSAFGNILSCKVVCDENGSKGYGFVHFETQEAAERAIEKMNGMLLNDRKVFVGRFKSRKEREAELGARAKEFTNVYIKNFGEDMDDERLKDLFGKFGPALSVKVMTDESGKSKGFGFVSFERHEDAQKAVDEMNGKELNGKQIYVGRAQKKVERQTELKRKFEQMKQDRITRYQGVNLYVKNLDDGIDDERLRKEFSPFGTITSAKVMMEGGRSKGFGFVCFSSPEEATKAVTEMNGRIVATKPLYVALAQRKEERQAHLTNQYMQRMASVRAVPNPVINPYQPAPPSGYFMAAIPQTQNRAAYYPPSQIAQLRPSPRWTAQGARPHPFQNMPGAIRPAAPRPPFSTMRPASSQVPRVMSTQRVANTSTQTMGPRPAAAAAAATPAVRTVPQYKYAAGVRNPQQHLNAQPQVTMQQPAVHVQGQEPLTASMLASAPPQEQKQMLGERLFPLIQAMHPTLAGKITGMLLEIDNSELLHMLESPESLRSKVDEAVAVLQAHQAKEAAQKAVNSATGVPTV
# [9] = target: Female germline-specific tumor suppressor gld-1 (Caenorhabditis elegans, UniProt Q17339); assay: blockers of GLD-1/TGE RNA complex formation – biochemical, fluorescence polarization, C. elegans, dose response (AID 2802);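 further: fluorescence polarization of labeled TGE RNA bound by purified gld-1 protein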
# Chain of Female germline-specific tumor suppressor gld-1 (Q17339 whole entry): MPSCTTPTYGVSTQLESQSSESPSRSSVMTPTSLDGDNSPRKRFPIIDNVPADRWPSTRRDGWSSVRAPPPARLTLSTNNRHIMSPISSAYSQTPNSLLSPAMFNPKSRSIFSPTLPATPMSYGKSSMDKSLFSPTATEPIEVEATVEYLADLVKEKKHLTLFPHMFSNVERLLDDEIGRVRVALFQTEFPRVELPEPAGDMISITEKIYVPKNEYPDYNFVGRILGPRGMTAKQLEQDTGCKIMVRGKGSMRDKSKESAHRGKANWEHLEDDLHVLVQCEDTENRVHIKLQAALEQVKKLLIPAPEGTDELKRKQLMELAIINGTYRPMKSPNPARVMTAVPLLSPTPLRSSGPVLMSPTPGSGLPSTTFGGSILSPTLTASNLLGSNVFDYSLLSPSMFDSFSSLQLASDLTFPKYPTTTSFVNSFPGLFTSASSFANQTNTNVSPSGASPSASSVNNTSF
# Protein Rev = Protein Rev (Human immunodeficiency virus type 1 group M subtype B (isolate HXB2)(HIV-1), UniProt P04618); assay: blockers of HIV Rev/RRE RNA complex – biochemical, fluorescence polarization, HIV-1, dose response (AID 434976); design: species or system Human immunodeficiency virus 1
# Chain of Protein Rev (P04618 whole entry): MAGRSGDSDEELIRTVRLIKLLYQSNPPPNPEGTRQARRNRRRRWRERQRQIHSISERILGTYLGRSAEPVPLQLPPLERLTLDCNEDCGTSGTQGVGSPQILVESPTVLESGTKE
# [10] = target: T4, Polyadenylate-binding protein 1; assay: MLLE binding blockers, Cy5 peptide tracer – biochemical, fluorescence polarization, Cy5-PAM2 peptide, secondary, miRNA deadenylation inhibitor project, dose response (AID 602260); type: functional; settings: read-out: IC50_Mean
# [11] = A cytotoxicity screen of small molecule inhibitors of the PhoP region in Salmonella typhi identified in the primary screen. [Related pubchem assays: 1850, 1864, 1985 ]; type: functional
smiles,measurement,setting,value
CN1CCc2cccc3c2[C@H]1Cc1ccc(O)c(O)c1-3 [APOMORPHINE],EC50,[1],> 300 µM (inconclusive)
same,IC50,Procathepsin L,> 59.6 µM (not active)
same,EC50,[2],3.29 µM (active)
same,IC50,Large T antigen,20.2 µM (active)
same,IC50,Aspartyl aminopeptidase,3.67 µM (active)
CSC(S)=NN=Cc1ccc(Br)cc1,IC50,[3],> 20 µM (inactive)
same,IC50,[4],> 20 µM (inactive)
same,IC50,HEK293,> 20 µM (inactive)
same,IC50,Tumor necrosis factor,> 20 µM (inactive)
CC(C)=CCc1c(O)cc(O)c2c1O[C@H](c1ccccc1)CC2=O [GLABRANIN],AC50,Cytochrome P450 2D6,31.6 µM (inconclusive)
CCN(CC)C(=O)c1ccc(/C=C/c2c[nH]c3ccccc23)[n+](C)c1,IC50,[5],> 55.7 µM (not active)
same,IC50,[6],1.96 µM (active)
same,IC50,Insulin-degrading enzyme,16.1 µM (not active)
same,IC50,[7],2.1 µM (active)
Cc1ccc2c3c(cccc13)-c1ccccc1C2=O,IC50,[8],51.1 µM (inactive)
same,IC50,[9],2.67 µM (active)
same,IC50,Protein Rev,10.1 µM (not active)
same,IC50,[10],38.3 µM (inactive)
CC(C)c1ccc(NC(=O)CSc2nnc(-c3ccccn3)n2C)cc1,EC50,[11],> 50 µM (active)
